From paper PMC9851200, “Multiparameter phenotypic screening for endogenous TFEB and TFE3 translocation identifies novel chemical series modulating lysosome function” (Autophagy, 2022)

How the values were obtained:
Format in all cases: binding
[1] = biological target: kinases (KINOMEscan panel) (Homo sapiens, UniProt O43353); conditions: RIPK2; NEW KINOMEscan
[2] = biological target: kinases (KINOMEscan panel) (Homo sapiens, UniProt P00519, E255K); conditions: NEW KINOMEscan
[3] = biological target: kinases (KINOMEscan panel) (Homo sapiens, UniProt P16234); conditions: PDGFRA; NEW KINOMEscan
[4] = biological target: kinases (KINOMEscan panel) (Homo sapiens, UniProt P17948); conditions: kinase FLT1; NEW KINOMEscan
Sequence of kinases (KINOMEscan panel) (Homo sapiens, UniProt P17948) (P17948 27-1338): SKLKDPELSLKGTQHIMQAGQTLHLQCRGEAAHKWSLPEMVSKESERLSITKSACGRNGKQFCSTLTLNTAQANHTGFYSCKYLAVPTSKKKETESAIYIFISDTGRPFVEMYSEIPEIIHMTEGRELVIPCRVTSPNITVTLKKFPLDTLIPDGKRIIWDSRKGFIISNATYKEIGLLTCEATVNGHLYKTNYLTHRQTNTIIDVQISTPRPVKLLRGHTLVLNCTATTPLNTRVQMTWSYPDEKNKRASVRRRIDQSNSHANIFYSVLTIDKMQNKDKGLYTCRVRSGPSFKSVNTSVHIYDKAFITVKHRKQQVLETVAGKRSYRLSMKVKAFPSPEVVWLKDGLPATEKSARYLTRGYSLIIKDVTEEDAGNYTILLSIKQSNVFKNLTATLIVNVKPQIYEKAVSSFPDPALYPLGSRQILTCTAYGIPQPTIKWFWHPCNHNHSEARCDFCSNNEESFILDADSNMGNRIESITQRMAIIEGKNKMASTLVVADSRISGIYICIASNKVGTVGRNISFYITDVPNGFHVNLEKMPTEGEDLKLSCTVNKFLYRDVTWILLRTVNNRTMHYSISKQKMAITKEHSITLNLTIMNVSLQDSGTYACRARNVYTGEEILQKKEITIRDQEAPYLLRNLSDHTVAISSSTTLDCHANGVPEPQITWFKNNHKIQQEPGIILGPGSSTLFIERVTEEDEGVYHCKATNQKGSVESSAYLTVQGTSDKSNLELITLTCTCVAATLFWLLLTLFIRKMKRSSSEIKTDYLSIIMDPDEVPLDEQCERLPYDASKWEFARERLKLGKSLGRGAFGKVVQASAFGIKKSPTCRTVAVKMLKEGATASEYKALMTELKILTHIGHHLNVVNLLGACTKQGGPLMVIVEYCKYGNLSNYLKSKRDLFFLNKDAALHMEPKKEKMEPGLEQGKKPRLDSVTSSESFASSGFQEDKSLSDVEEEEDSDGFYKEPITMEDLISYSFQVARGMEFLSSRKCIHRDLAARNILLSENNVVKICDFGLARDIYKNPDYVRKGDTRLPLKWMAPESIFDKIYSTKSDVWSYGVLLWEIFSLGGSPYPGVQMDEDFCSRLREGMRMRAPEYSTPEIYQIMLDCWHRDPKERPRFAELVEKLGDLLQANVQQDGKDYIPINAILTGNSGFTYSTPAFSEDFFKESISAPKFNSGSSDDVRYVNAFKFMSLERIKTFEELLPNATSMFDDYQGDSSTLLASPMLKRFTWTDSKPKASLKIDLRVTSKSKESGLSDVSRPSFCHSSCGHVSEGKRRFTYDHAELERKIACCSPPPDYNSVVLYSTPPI

[5] = biological target: kinases (KINOMEscan panel) (Homo sapiens, UniProt P30291); conditions: WEE1; NEW KINOMEscan
Sequence of kinases (KINOMEscan panel) (Homo sapiens, UniProt P30291) (P30291 whole entry): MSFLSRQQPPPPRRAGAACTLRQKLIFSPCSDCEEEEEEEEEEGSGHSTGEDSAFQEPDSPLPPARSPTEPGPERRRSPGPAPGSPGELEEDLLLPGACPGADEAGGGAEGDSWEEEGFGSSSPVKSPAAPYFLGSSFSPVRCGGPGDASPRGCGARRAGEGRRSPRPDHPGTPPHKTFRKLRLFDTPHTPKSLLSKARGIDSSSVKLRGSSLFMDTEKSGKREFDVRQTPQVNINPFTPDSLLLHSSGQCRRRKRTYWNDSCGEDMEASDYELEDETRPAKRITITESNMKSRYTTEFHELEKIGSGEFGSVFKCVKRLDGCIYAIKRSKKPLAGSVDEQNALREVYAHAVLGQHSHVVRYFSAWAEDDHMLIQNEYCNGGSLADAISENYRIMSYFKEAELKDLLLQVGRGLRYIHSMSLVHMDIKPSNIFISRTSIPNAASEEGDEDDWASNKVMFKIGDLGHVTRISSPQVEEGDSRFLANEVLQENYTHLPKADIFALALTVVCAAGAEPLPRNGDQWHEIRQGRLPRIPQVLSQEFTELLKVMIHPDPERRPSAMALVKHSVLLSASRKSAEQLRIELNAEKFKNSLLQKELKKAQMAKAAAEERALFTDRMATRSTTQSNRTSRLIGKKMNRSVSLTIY

[6] = biological target: T1, kinases (KINOMEscan panel) (Homo sapiens, UniProt P52333); conditions: kinase JAK3(JH1domain-catalytic); NEW KINOMEscan
T1 sequence (P52333 1-1124): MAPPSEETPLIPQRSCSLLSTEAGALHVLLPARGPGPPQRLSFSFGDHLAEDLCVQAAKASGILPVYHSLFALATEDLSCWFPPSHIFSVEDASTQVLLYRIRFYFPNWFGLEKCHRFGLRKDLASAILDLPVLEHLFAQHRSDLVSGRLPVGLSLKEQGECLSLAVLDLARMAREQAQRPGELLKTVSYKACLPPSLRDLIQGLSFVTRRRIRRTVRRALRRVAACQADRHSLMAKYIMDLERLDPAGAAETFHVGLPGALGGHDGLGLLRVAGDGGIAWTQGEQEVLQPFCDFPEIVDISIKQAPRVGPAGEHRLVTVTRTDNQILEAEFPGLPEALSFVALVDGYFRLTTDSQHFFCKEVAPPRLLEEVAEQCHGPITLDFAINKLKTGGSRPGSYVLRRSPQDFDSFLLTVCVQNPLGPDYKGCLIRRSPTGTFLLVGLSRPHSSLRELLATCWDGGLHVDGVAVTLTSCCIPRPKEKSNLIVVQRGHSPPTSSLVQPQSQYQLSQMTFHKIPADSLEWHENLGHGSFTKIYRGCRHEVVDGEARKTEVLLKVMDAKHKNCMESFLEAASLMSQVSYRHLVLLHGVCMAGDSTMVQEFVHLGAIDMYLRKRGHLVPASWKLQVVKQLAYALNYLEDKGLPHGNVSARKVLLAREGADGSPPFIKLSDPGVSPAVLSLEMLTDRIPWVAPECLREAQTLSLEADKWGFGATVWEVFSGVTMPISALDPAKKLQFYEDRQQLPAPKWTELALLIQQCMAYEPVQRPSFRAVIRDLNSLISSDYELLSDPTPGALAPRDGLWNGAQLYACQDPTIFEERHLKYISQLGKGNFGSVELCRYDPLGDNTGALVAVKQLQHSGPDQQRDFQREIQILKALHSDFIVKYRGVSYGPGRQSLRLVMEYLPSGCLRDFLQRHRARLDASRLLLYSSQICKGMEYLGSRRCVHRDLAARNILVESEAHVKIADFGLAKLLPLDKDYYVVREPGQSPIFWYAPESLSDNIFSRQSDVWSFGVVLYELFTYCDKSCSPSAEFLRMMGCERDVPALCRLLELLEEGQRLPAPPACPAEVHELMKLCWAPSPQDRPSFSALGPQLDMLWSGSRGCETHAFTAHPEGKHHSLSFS

[7] = biological target: T2, kinases (KINOMEscan panel) (Homo sapiens, UniProt Q13976); conditions: kinase PRKG1; NEW KINOMEscan
T2 sequence (Q13976 1-671): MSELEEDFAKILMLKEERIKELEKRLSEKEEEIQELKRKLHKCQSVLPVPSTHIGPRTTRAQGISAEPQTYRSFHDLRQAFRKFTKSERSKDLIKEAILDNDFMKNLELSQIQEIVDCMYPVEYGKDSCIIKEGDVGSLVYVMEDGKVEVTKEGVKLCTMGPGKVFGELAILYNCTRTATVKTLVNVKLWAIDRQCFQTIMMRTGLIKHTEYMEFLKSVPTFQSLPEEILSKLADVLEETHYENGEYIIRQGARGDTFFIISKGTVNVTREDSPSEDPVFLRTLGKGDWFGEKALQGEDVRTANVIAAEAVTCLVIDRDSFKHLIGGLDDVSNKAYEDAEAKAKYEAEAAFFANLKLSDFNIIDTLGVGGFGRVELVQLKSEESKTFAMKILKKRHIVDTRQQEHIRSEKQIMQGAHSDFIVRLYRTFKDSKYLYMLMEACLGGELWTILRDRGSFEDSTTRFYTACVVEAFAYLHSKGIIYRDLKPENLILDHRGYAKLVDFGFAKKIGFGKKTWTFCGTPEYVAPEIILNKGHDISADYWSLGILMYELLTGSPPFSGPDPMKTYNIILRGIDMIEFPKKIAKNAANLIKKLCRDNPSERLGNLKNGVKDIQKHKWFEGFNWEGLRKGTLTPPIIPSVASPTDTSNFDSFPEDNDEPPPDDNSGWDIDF

[8] = biological target: kinases (KINOMEscan panel) (Homo sapiens, UniProt Q8TDR2); conditions: STK35; NEW KINOMEscan
[9] = biological target: kinases (KINOMEscan panel) (Homo sapiens, UniProt Q9UBF8); conditions: kinase PI4KB; NEW KINOMEscan
Sequence of kinases (KINOMEscan panel) (Homo sapiens, UniProt Q9UBF8) (Q9UBF8 whole entry): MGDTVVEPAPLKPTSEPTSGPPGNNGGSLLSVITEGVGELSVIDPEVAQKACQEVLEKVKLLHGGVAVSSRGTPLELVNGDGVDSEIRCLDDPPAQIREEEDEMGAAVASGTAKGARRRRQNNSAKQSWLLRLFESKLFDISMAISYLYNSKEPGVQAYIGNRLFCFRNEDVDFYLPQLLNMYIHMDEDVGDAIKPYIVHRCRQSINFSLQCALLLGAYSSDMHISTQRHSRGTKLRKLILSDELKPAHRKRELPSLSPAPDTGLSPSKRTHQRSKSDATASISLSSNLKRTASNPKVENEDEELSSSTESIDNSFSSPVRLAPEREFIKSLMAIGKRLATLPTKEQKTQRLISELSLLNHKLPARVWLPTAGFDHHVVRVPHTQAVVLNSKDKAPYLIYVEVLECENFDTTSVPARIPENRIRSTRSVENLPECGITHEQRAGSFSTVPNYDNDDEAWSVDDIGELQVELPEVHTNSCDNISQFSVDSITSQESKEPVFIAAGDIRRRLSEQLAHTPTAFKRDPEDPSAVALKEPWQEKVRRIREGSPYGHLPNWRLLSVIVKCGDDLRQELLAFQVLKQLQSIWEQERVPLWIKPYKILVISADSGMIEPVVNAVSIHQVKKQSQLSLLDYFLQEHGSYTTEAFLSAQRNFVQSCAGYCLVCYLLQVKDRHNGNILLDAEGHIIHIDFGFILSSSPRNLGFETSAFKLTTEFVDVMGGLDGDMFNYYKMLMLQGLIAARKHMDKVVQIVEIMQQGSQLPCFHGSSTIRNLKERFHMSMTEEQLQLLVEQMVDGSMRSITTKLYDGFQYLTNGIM

[10] = biological target: kinases (KINOMEscan panel) (Homo sapiens, UniProt Q9Y6M4); conditions: CSNK1G3; NEW KINOMEscan
Sequence of kinases (KINOMEscan panel) (Homo sapiens, UniProt Q9Y6M4) (Q9Y6M4 whole entry): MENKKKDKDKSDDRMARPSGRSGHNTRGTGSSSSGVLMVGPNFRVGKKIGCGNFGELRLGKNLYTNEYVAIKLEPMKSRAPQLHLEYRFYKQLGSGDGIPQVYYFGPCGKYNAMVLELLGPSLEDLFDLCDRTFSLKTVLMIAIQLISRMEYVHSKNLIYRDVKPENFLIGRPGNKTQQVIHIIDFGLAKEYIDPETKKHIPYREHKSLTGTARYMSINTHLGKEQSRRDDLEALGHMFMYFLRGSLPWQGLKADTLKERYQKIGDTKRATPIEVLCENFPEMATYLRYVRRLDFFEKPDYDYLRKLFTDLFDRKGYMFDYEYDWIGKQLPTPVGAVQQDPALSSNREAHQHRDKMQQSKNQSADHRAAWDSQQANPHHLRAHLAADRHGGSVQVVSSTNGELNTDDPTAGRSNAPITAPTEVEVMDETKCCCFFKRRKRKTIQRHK

Sequence of kinases (KINOMEscan panel) (Homo sapiens, UniProt P00519, E255K) (P00519 whole entry E255K): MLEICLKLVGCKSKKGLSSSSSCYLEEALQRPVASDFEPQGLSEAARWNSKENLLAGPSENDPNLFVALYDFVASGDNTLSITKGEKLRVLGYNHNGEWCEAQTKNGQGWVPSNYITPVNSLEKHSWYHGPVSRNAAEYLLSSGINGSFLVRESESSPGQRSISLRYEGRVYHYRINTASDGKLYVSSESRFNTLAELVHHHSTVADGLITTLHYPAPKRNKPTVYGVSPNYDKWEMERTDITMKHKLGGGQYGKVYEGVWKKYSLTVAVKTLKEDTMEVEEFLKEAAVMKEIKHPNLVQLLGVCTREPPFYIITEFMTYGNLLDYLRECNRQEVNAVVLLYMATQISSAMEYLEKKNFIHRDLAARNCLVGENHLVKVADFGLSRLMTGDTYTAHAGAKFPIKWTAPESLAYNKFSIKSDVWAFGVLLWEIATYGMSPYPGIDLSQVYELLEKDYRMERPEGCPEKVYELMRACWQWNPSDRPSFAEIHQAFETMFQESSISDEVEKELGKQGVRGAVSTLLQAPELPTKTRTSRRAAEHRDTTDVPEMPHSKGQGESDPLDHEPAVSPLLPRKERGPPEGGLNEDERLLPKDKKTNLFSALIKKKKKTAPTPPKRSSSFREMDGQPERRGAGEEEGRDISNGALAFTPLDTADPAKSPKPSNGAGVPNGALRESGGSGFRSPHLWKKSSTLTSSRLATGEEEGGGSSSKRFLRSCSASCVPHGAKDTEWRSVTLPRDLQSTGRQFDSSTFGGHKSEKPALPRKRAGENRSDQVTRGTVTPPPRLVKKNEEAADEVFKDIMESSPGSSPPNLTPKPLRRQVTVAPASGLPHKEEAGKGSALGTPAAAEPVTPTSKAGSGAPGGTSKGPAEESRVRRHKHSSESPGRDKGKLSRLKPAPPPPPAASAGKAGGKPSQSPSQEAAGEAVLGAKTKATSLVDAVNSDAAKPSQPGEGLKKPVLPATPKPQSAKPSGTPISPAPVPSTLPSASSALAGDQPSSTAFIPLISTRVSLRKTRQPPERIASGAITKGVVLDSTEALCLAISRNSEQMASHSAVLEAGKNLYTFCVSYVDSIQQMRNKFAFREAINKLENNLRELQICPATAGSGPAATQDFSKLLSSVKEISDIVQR
Sequence of kinases (KINOMEscan panel) (Homo sapiens, UniProt O43353) (O43353 whole entry): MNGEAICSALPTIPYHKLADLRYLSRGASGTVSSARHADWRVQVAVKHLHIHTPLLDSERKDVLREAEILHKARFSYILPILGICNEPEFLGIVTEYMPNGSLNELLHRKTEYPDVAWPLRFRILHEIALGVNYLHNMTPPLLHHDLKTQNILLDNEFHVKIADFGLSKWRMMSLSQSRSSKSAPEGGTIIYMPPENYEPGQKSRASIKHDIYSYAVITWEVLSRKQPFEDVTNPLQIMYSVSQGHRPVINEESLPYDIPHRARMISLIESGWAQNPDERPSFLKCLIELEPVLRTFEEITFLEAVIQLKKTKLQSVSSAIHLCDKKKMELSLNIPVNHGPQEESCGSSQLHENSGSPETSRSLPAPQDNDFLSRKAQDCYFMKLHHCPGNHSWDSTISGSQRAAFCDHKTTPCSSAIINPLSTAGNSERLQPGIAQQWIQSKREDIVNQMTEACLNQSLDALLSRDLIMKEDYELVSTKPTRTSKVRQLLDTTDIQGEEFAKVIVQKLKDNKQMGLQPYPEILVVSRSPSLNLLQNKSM

Structure (SMILES) | KINOMEscan RIPK2 [1] | KINOMEscan ABL1(E255K)-phosphorylated [2] | KINOMEscan PDGFRA [3] | KINOMEscan FLT1 [4] | KINOMEscan WEE1 [5] | KINOMEscan JAK3(JH1domain-catalytic) [6] | KINOMEscan PRKG1 [7] | KINOMEscan STK35 [8] | KINOMEscan PI4KB [9] | KINOMEscan CSNK1G3 [10]
Cc1cccc(-c2nc(Nc3ccc4nn(C)cc4c3)c3ccccc3n2)n1 [NK167] | 3 | 15 | 0 | 4 | 0 | 0 | 0 | 0 | 0 | 0
Cc1cccc(-c2nc(N(C)c3ccc4ncsc4c3)c3ccccc3n2)n1 [NK-161] | 11 | 22 | 0 | 12 | 0 | 0 | 10 | 0 | 0 | 0
